Results reported in ChEMBL document CHEMBL1152162, “Coagulanolide, a withanolide from Withania coagulans fruits and antihyperglycemic activity” (2008).

How the values were obtained:
Assay type in all cases: functional
Rattus norvegicus [1] = experiment: Antihyperglycemic activity in streptozotocin-induced diabetic Sprague-Dawley rat model assessed as glucose tolerance at 100 mg/kg, po administered 30 mins before sucrose-load
Mus musculus [2] = experiment: Antihyperglycemic activity in diabetic C57BL/KsJ-db/db mouse model assessed as decrease in postprandial blood glucose level at 50 mg/kg, po for 10 days relative to control; set-up: scale not given: the % may be the effect or the level left
Mus musculus [3] = experiment: Antihyperglycemic activity in diabetic C57BL/KsJ-db/db mouse model assessed as improvement in glucose tolerance at 50 mg/kg, po for 10 days relative to control by OGTT
Mus musculus [4] = experiment: Antihyperglycemic activity in diabetic C57BL/KsJ-db/db mouse model assessed as decrease in blood glucose AUC at 50 mg/kg, po for 10 days relative to control; set-up: scale not given: the % may be the effect or the level left
Mus musculus [5] = experiment: Antihyperglycemic activity in diabetic C57BL/KsJ-db/db mouse model assessed as decrease in plasma triglyceride level at 50 mg/kg, po for 10 days relative to control; set-up: scale not given: the % may be the effect or the level left
Mus musculus [6] = experiment: Antihyperglycemic activity in diabetic C57BL/KsJ-db/db mouse model assessed as decrease in total cholesterol at 50 mg/kg, po for 10 days relative to control; set-up: scale not given: the % may be the effect or the level left
Mus musculus [7] = experiment: Antihyperglycemic activity in diabetic C57BL/KsJ-db/db mouse model assessed as increase in high-density lipoprotein cholesterol at 50 mg/kg, po for 10 days relative to control
Mus musculus [8] = experiment: Antihyperglycemic activity in diabetic C57BL/KsJ-db/db mouse model assessed as decrease in low-density lipoprotein cholesterol at 50 mg/kg, po for 10 days relative to control; set-up: scale not given: the % may be the effect or the level left
Mus musculus [9] = experiment: Antihyperglycemic activity in diabetic C57BL/KsJ-db/db mouse model assessed as decrease in very low-density lipoprotein cholesterol at 50 mg/kg, po for 10 days relative to control; set-up: scale not given: the % may be the effect or the level left
Mus musculus [10] = experiment: Antihyperglycemic activity in po dosed diabetic C57BL/KsJ-db/db mouse model assessed as decrease in postprandial blood glucose level for 10 days; details: 240 h
Rattus norvegicus [11] = experiment: Antihyperglycemic activity in Sprague-Dawley normoglycemic rat model assessed as glucose tolerance at 100 mg/kg, po administered 30 mins before sucrose-load

SMILES	Activity (Rattus norvegicus [1])	Activity (Mus musculus [2])	Activity (Mus musculus [3])	Activity (Mus musculus [4])	Activity (Mus musculus [5])	Activity (Mus musculus [6])	Activity (Mus musculus [7])	Activity (Mus musculus [8])	Activity (Mus musculus [9])	ED50 (Mus musculus [10])	Activity (Rattus norvegicus [11])
CC1=C(C)C(=O)O[C@@H]([C@](C)(O)[C@]2(O)CC[C@@]3(O)[C@@H]4CC=C5C[C@@H](O[C@@H]6O[C@H](CO)[C@@H](O)[C@H](O)[C@H]6O)CC(=O)[C@]5(C)[C@H]4CC[C@]23C)C1	23.3%	22.7%	44.1%	40.5%	14.7%	25.7%	24.7%	21.2%	15.6%	25 mg/kg	29.8%
CC1=C(C)C(=O)O[C@@H]([C@](C)(O)[C@]2(O)CC[C@@]3(O)[C@@H]4CC=C5C=CCC(=O)[C@]5(C)[C@H]4CC[C@]23C)C1	15.8%	–	–	–	–	–	–	–	–	–	20.4%
CC1=C(C)C(=O)O[C@@H]([C@](C)(O)[C@]2(O)C[C@H](O)[C@@]3(O)[C@@H]4CC=C5CC=CC(=O)[C@]5(C)[C@H]4CC[C@@]32C)C1 [COAGULANOLIDE]	14.7%	–	–	–	–	–	–	–	–	–	28.1%
CC1=C(C)C(=O)O[C@@H]([C@]2(C)O[C@@]34CC[C@]2(O)[C@@]3(C)CC[C@H]2[C@H]4CC=C3CC=CC(=O)[C@@]32C)C1 [COAGULIN C]	16.9%	–	–	–	–	–	–	–	–	–	22.8%
CC(C)OC(=O)C(C)(C)Oc1ccc(C(=O)c2ccc(Cl)cc2)cc1 [FENOFIBRATE]	–	–	–	–	16.2%	30.8%	12.4%	24.5%	21.6%	–	–
CN(C)C(=N)NC(=N)N [METFORMIN]	17.1%	18.6%	24.8%	24.8%	–	–	–	–	–	–	26.4%
CC1=C(C)C(=O)O[C@@H]([C@](C)(O)[C@]2(O)CC[C@@]3(O)[C@@H]4CC=C5CC=CC(=O)[C@]5(C)[C@H]4CC[C@]23C)C1 [WITHANOLIDE F]	18.2%	–	–	–	–	–	–	–	–	–	24.9%
